Test results reported in PubChem BioAssay AID1963984 (Molecular Pharmacology Branch, DTP, NCI, 2024).

System: 233499-124-R-J3-PDC spheroids with HUVEC/MSC, viability
Assay: Anticancer human tumor 233499-124-R-J3-PDC patient-derived colon adenocarcinoma cell line growth inhibition [PI3K]
Conditions: for IC50: curve of first compound; for viability, T/C: stronger effect = lower value; active = viability on the fitted dose curve at most 10% of control; inactive = the rest
In short: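 Tumor cells grown as multi-cell spheroids with HUVEC endothelial cells and MSC fibroblast-like stroma were treated with targeted agents combined with inavolisib, alpelisib, duvelisib or copanlisib. Doses fell in half-log steps from near clinical Cmax, else from 10 microM. Viability was measured.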

[1] = second compound 0.00316 µM, first compound 0.0316 µM
[2] = second compound 0.00316 µM, first compound 0.1 µM
[3] = second compound 0.00316 µM, first compound 0.316 µM
[4] = second compound 0.00316 µM, first compound 1 µM
[5] = second compound 0.01 µM, first compound 0.0316 µM
[6] = second compound 0.01 µM, first compound 0.1 µM
[7] = second compound 0.01 µM, first compound 0.316 µM
[8] = second compound 0.01 µM, first compound 1 µM
[9] = second compound 0.0316 µM, first compound 0.0316 µM
[10] = second compound 0.0316 µM, first compound 0.1 µM
[11] = second compound 0.0316 µM, first compound 0.316 µM
[12] = second compound 0.0316 µM, first compound 1 µM
[13] = second compound 0.1 µM, first compound 0.0316 µM
[14] = second compound 0.1 µM, first compound 0.1 µM
[15] = second compound 0.1 µM, first compound 0.316 µM
[16] = second compound 0.1 µM, first compound 1 µM
[17] = second compound 0.316 µM, first compound 0.0316 µM
[18] = second compound 0.316 µM, first compound 0.1 µM
[19] = second compound 0.316 µM, first compound 0.316 µM
[20] = second compound 0.316 µM, first compound 1 µM
[21] = second compound 1 µM, first compound 0.0316 µM
[22] = second compound 1 µM, first compound 0.1 µM
[23] = second compound 1 µM, first compound 0.316 µM
[24] = second compound 1 µM, first compound 1 µM
[25] = second compound 0.00316 µM, first compound 0.00316 µM
[26] = second compound 0.00316 µM, first compound 0.01 µM
[27] = second compound 0.01 µM, first compound 0.00316 µM
[28] = second compound 0.01 µM, first compound 0.01 µM
[29] = second compound 0.0316 µM, first compound 0.00316 µM
[30] = second compound 0.0316 µM, first compound 0.01 µM
[31] = second compound 0.1 µM, first compound 0.00316 µM
[32] = second compound 0.1 µM, first compound 0.01 µM
[33] = second compound 0.316 µM, first compound 0.00316 µM
[34] = second compound 0.316 µM, first compound 0.01 µM
[35] = second compound 1 µM, first compound 0.00316 µM
[36] = second compound 1 µM, first compound 0.01 µM
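Also: spheroids exposed to agents for seven days before readout.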
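For viability, T/C in this document: percent viability relative to DMSO vehicle control taken as 100%.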

CC(C)NCC(C(=O)N1CCN(c2ncnc3c2C(C)CC3O)CC1)c1ccc(Cl)cc1 (stereo unspecified) + CC(Nc1ccc2c(c1)OCCn1cc(N3C(=O)OCC3C(F)F)nc1-2)C(N)=O
7250 nM: IC50 (second compound 1 µM)
> 10000 nM: IC50 (second compound 0.00316 µM) | IC50 (second compound 0.01 µM) | IC50 (second compound 0.0316 µM) | IC50 (second compound 0.1 µM) | IC50 (second compound 0.316 µM)
inactive: viability, T/C [1] 53.2% | viability, T/C [2] 98.8% | viability, T/C [3] 74.7% | viability, T/C [4] 96% | viability, T/C (second compound 0.00316 µM, first compound 3.16 µM) 94.2% | viability, T/C (second compound 0.00316 µM, first compound 10 µM) 50.3% | viability, T/C [5] 96.7% | viability, T/C [6] 102% | viability, T/C [7] 94.8% | viability, T/C [8] 96.2% | viability, T/C (second compound 0.01 µM, first compound 3.16 µM) 86.1% | viability, T/C (second compound 0.01 µM, first compound 10 µM) 71.1% | viability, T/C [9] 89% | viability, T/C [10] 84.9% | viability, T/C [11] 89% | viability, T/C [12] 86.1% | viability, T/C (second compound 0.0316 µM, first compound 3.16 µM) 81.2% | viability, T/C (second compound 0.0316 µM, first compound 10 µM) 76.8% | viability, T/C [13] 87.7% | viability, T/C [14] 86.2% | viability, T/C [15] 77.3% | viability, T/C [16] 51.9% | viability, T/C (second compound 0.1 µM, first compound 3.16 µM) 80.8% | viability, T/C (second compound 0.1 µM, first compound 10 µM) 58.6% | viability, T/C [17] 72.2% | viability, T/C [18] 83.2% | viability, T/C [19] 69.7% | viability, T/C [20] 67.5% | viability, T/C (second compound 0.316 µM, first compound 3.16 µM) 59.9% | viability, T/C (second compound 0.316 µM, first compound 10 µM) 79.5% | viability, T/C [21] 49.2% | viability, T/C [22] 40.3% | viability, T/C [23] 65.2% | viability, T/C [24] 68.7% | viability, T/C (second compound 1 µM, first compound 3.16 µM) 50.9% | viability, T/C (second compound 1 µM, first compound 10 µM) 36.4%

CCN1CCN(Cc2ccc(Nc3ncc(F)c(-c4cc(F)c5nc(C)n(C(C)C)c5c4)n3)nc2)CC1 + CC(Nc1ccc2c(c1)OCCn1cc(N3C(=O)OCC3C(F)F)nc1-2)C(N)=O
672 nM: IC50 (second compound 0.01 µM)
86.9 nM: IC50 (second compound 0.316 µM)
528 nM: IC50 (second compound 0.0316 µM)
4.39 nM: IC50 (second compound 1 µM)
236 nM: IC50 (second compound 0.1 µM)
> 1000 nM: IC50 (second compound 0.00316 µM)
inactive: viability, T/C [25] 68.8% | viability, T/C [26] 98.9% | viability, T/C [1] 94% | viability, T/C [2] 73.7% | viability, T/C [3] 59.5% | viability, T/C [4] 49.7% | viability, T/C [27] 106% | viability, T/C [28] 95.8% | viability, T/C [5] 89.7% | viability, T/C [6] 85.4% | viability, T/C [7] 79.9% | viability, T/C [8] 35.7% | viability, T/C [29] 90.2% | viability, T/C [30] 85.2% | viability, T/C [9] 82% | viability, T/C [10] 91.6% | viability, T/C [11] 58.5% | viability, T/C [12] 39.3% | viability, T/C [31] 87.8% | viability, T/C [32] 90.8% | viability, T/C [13] 73.8% | viability, T/C [14] 79% | viability, T/C [15] 39.4% | viability, T/C [16] 40.8% | viability, T/C [33] 73.2% | viability, T/C [34] 72.7% | viability, T/C [17] 63% | viability, T/C [18] 51.1% | viability, T/C [19] 31.2% | viability, T/C [20] 44.5% | viability, T/C [35] 55.3% | viability, T/C [36] 45.2% | viability, T/C [21] 32.2% | viability, T/C [22] 48.9% | viability, T/C [23] 42.6% | viability, T/C [24] 27.8%

Cn1ncnc1[C@H]1c2n[nH]c(=O)c3cc(F)cc(c23)N[C@@H]1c1ccc(F)cc1 + CC(Nc1ccc2c(c1)OCCn1cc(N3C(=O)OCC3C(F)F)nc1-2)C(N)=O
inactive: viability, T/C (second compound 0.00316 µM, first compound 0.000316 µM) 86.6% | viability, T/C (second compound 0.00316 µM, first compound 0.001 µM) 109% | viability, T/C [25] 70% | viability, T/C [26] 105% | viability, T/C [1] 84.3% | viability, T/C [2] 63.4% | viability, T/C (second compound 0.01 µM, first compound 0.000316 µM) 77.7% | viability, T/C (second compound 0.01 µM, first compound 0.001 µM) 111% | viability, T/C [27] 88.3% | viability, T/C [28] 92.1% | viability, T/C [5] 97% | viability, T/C [6] 48.7% | viability, T/C (second compound 0.0316 µM, first compound 0.000316 µM) 92.6% | viability, T/C (second compound 0.0316 µM, first compound 0.001 µM) 81.9% | viability, T/C [29] 63.6% | viability, T/C [30] 73.4% | viability, T/C [9] 83.8% | viability, T/C [10] 61.7% | viability, T/C (second compound 0.1 µM, first compound 0.000316 µM) 97.5% | viability, T/C (second compound 0.1 µM, first compound 0.001 µM) 92.3% | viability, T/C [31] 83.3% | viability, T/C [32] 72.8% | viability, T/C [13] 87.9% | viability, T/C [14] 66.3% | viability, T/C (second compound 0.316 µM, first compound 0.000316 µM) 71.9% | viability, T/C (second compound 0.316 µM, first compound 0.001 µM) 94.2% | viability, T/C [33] 75% | viability, T/C [34] 70.8% | viability, T/C [17] 60.2% | viability, T/C [18] 58.3% | viability, T/C (second compound 1 µM, first compound 0.000316 µM) 72.2% | viability, T/C (second compound 1 µM, first compound 0.001 µM) 58.1% | viability, T/C [35] 58.3% | viability, T/C [36] 58.2% | viability, T/C [21] 52.1% | viability, T/C [22] 33%
> 100 nM: IC50 (second compound 0.00316 µM) | IC50 (second compound 0.0316 µM) | IC50 (second compound 0.1 µM) | IC50 (second compound 0.316 µM)
26.9 nM: IC50 (second compound 1 µM)
96.6 nM: IC50 (second compound 0.01 µM)
